In patent US5070092A, “Pyrroloindole derivatives related to DC-88A compound” (Kyowa Hakko Kogyo Co., Ltd., priority 1989, dated 1991):

Experiments:
[1] = prior art U.S. Pat. No. 4,169,888, EP-A-0154445, EP-A-0339681; cited from earlier work
Sarcoma 180 tumor cells = assay: Therapeutic Effect against Sarcoma 180 Tumor Cells; assay type: in vivo, male ddY-strain mice; conditions: intravenous, seven days after implantation
Procedure: Five male ddY-strain mice each having a weight of 18 to 20 g were used for each group as test animals, and 5×10^5 Sarcoma 180 tumor cells were implanted subcutaneously into the animals at the axilla. Ond day after the implantation, 0.2 ml of physiological saline containing a test compound in the concentration indicated in Table 3 was intravenously administered to each mouse. T/C [T: average tumor volume (mm^3) of the groups treated with the test compound, C: that of the control group which received an intravenous administration of 0.2 ml of physiological saline] was determined seven days after the implantation.

dd strain male mice = assay: Acute Toxicity Test; assay type: in vivo; conditions: intraperitoneal, 14 days after administration
Procedure: A test compound was intraperitoneally administered to dd strain male mice each weighing 20 ±1 g. MLD (the minimum lethal dose) was determined by observing the mortality for 14 days after the administration.

[2] = tested on: lymphocytic leukemia P388; conditions: prior art WO 87/06265, EP-A-0351865, JP 139590/89; cited from earlier work
various bacteria = conditions: prior art WO 87/06265, EP-A-0351865, JP 139590/89; cited from earlier work

SMILES: COc1c(O)c2c(c3cc(C(=O)N4CCc5c4c(O)c(OC)c4[nH]c(C(=O)N6CC7CC78C6=CC(=O)c6[nH]cc(C)c68)cc54)[nH]c13)CCN2C(N)=O (centres unmarked) [CC-1065]
- anti-tumor activity [1]: exhibit anti-tumor activity

SMILES: COC(=O)c1c(C)[nH]c2c(O[Si](C)(C)C(C)(C)C)cc3c(c12)C(CBr)CN3C(=O)c1cc2cc(OC)c(OC)c(OC)c2[nH]1 (centres unmarked) [Compound 1]
- Sarcoma 180 T/C (average tumor volume, treated/control) (Sarcoma 180 tumor cells; dose 0.25 mg/kg): 0.043
- Acute Toxicity (MLD), minimum lethal dose (dd strain male mice): 1.0 mg/kg

SMILES: COC(=O)c1c(C)[nH]c2c(O)cc3c(c12)C(CCl)CN3C(=O)c1cc2cc(OC)c(OC)c(OC)c2[nH]1 (centres unmarked) [Compound 2]
- Acute Toxicity (MLD), minimum lethal dose (dd strain male mice): 1.0 mg/kg

SMILES: COC(=O)c1c(C)[nH]c2c1C13CC1CN(C(=O)c1cc4cc(OC)c(OC)c(OC)c4[nH]1)C3=CC2=O (centres unmarked) [Compound 4]
- Sarcoma 180 T/C (average tumor volume, treated/control) (Sarcoma 180 tumor cells; dose 0.25 mg/kg): 0.21
- Acute Toxicity (MLD), minimum lethal dose (dd strain male mice): 0.5 mg/kg

SMILES: COC(=O)c1c(C)[nH]c2c(OC(=O)N(C)C)cc3c(c12)C(CBr)CN3C(=O)c1cc2cc(OC)c(OC)c(OC)c2[nH]1 (centres unmarked) [Compound 13]
- Sarcoma 180 T/C (average tumor volume, treated/control) (Sarcoma 180 tumor cells; dose 1.0 mg/kg): 0.063
- Acute Toxicity (MLD), minimum lethal dose (dd strain male mice): 1.0 mg/kg

SMILES: COC(=O)c1c(C)[nH]c2c(OC(=O)N3CCCCC3)cc3c(c12)C(CBr)CN3C(=O)c1cc2cc(OC)c(OC)c(OC)c2[nH]1 (centres unmarked) [Compound 14]
- Sarcoma 180 T/C (average tumor volume, treated/control) (Sarcoma 180 tumor cells; dose 0.50 mg/kg): 0.20
- Sarcoma 180 T/C (average tumor volume, treated/control) (Sarcoma 180 tumor cells; dose 1.0 mg/kg): 0.098
- Acute Toxicity (MLD), minimum lethal dose (dd strain male mice): 1.0 mg/kg

SMILES: COC(=O)c1c(C)[nH]c2c(OC(=O)N3CCCC3)cc3c(c12)C(CBr)CN3C(=O)c1cc2cc(OC)c(OC)c(OC)c2[nH]1 (centres unmarked) [Compound 15]
- Sarcoma 180 T/C (average tumor volume, treated/control) (Sarcoma 180 tumor cells; dose 0.50 mg/kg): 0.21
- Sarcoma 180 T/C (average tumor volume, treated/control) (Sarcoma 180 tumor cells; dose 1.0 mg/kg): 0.088
- Acute Toxicity (MLD), minimum lethal dose (dd strain male mice): 1.0 mg/kg

SMILES: COC(=O)c1c(C)[nH]c2c(OC(=O)N3CCN(C)CC3)cc3c(c12)C(CBr)CN3C(=O)c1cc2cc(OC)c(OC)c(OC)c2[nH]1 (centres unmarked) [Compound 16]
- Sarcoma 180 T/C (average tumor volume, treated/control) (Sarcoma 180 tumor cells; dose 0.50 mg/kg, 0.5 mg/kg): 0.24
- Acute Toxicity (MLD), minimum lethal dose (dd strain male mice): 1.0 mg/kg

SMILES: COC(=O)c1c(C)[nH]c2c(OC(=O)N3CCN(C)CC3)cc3c(c12)C(CBr)CN3C(=O)c1cc2cc(OC)c(OC)c(OC)c2[nH]1 (centres unmarked) [Compound 18]
- Sarcoma 180 T/C (average tumor volume, treated/control) (Sarcoma 180 tumor cells; dose 0.50 mg/kg, 0.5 mg/kg): 0.14
- Acute Toxicity (MLD), minimum lethal dose (dd strain male mice): 0.84 mg/kg

SMILES: COC(=O)C1(C)NC2=C(C1=O)C13CC1CN(C(=O)c1cc4cc(OC)c(OC)c(OC)c4[nH]1)C3=CC2=O (centres unmarked) [DC-88A]
- anti-tumor activity against lymphocytic leukemia P388 [2]: anti-tumor activity against lymphocytic leukemia P388
- antibacterial activity (various bacteria): antibacterial activity against various bacteria
